A value given as a limit tells only on which side of the number the result lay.

Here are results for 32 compounds from patent publication US20230000842A1, “METHODS OF TREATING CARTILAGE DISORDERS THROUGH INHIBITION OF CLK AND DYRK” (SAMUMED, LLC, priority 2019, published 2023).

In one assay the target is CLK2 kinase (Homo sapiens, UniProt P49760). Nature of the assay: CLK2 kinase activity assay (Z-lyte FRET).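 Note: FRET read-out as coumarin to fluorescein emission ratio, unphosphorylated peptide as 0% and phosphorylated peptide as 100% controls, duplicate reactions, non-linear regression fit of dose-response curves.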 It counts as biochemical. The note with it: Z-lyte Ser/Thr 6 peptide, 60 μM ATP, 1 h at room temperature.
The target of a further assay is CLK3 kinase (Homo sapiens, UniProt P49761). Nature of the assay: CLK3 kinase activity assay (Z-lyte FRET).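 Note: kinase activity read as coumarin/fluorescein emission ratio by FRET, unphosphorylated peptide as 0% and phosphorylated peptide as 100% control, values from non-linear regression of dose-response curves.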 The format is biochemical. The following applies: Z-lyte Ser/Thr 18 peptide, 156 μM ATP, 1 h at room temperature.
Assay [1] deals with primary human mesenchymal stem cells (hMSCs). The assay can be described thus: Chondrogenesis screening using primary human mesenchymal stem cells. It counts as cell-based. The following applies: Homo sapiens, Mesenchymal stem cells, hMSC chondrogenesis; for Emax: maximum activity relative to TGF-β3 (10 ng/mL) positive control, read-out: Max. Activity as % TGF-β3 activity; for EC50: concentration required to induce 50% levels of chondrogenesis with TGF-β3 as positive control, read-out: Conc (nM) of 50% TGF-β3 activity. The gist of the method:
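Primary hMSCs at passage 3–6 were treated across compound concentrations, with TGF-β3 as positive control. Chondrogenic nodule area per well was normalized to 3 DMSO wells on the same plate (fold over DMSO, 2–3 replicates). EC50, maximum activity and the dose reaching it were derived.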

The test system of assay [2] is Wnt pathway activity (SW480 colon carcinoma cells stably expressing the Sp5-Luc reporter). Nature of the assay: Wnt pathway activity screening assay (Sp5-Luc reporter gene assay). The following applies: Homo sapiens, SW480, Table 4; SW480 cells stably expressing Sp5-Luc reporter, 10-point dose-response from 10 μM, 36 to 48 hours.

Chain of CLK3 kinase (P49761 whole entry): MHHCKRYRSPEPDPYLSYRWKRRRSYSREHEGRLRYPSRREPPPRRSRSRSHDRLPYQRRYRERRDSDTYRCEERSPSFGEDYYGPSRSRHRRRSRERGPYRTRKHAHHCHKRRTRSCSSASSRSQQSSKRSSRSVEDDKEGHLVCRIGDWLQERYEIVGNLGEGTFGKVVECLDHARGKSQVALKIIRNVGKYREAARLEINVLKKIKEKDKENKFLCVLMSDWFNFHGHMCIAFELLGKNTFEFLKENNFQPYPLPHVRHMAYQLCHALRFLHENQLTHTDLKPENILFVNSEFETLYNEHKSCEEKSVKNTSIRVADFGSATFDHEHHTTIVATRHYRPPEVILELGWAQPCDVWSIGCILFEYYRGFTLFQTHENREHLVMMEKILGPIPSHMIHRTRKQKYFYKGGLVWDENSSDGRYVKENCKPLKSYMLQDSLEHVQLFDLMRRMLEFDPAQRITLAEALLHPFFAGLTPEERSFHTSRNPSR
Chain of CLK2 kinase (P49760 whole entry): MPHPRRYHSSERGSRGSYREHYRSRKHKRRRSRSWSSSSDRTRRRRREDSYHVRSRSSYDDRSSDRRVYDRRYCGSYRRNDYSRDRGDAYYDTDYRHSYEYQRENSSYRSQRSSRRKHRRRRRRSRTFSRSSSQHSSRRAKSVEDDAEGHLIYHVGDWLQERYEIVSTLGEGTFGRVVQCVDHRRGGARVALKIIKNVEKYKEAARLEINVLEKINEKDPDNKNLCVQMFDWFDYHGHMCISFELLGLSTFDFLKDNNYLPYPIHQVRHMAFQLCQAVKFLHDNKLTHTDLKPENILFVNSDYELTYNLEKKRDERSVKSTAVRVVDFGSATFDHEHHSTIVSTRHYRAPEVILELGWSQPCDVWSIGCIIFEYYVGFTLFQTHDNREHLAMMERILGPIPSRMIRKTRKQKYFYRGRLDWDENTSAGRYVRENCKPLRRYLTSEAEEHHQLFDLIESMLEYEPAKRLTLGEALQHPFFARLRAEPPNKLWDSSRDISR

For the compound `CCCC(=O)Nc1cncc(-c2cnc3[nH]nc(-c4cc5c(-c6cc(F)cc(CNS(C)(=O)=O)c6)cncc5[nH]4)c3c2)c1` [compound 518], the EC50 at CLK2 kinase came to 7 nM; on CLK3 kinase, 39 nM; in assay [2], 1680 nM. Also, the Emax in assay [1] stood at 36.7%.
The corresponding values for `CN(C)Cc1cncc(-c2cc3c(-c4cc5c(-c6ccncc6)ccnc5[nH]4)n[nH]c3cn2)c1` [compound 400] are 12 nM, 180 nM, > 10000 nM and 33.4%.
The matching figures for `c1cncc(-c2cncc3[nH]c(-c4n[nH]c5ncc(-c6cncnc6)cc45)cc23)c1` [compound 373]: 4 nM, 156 nM, > 10000 nM and 24.1%.
Turning to `c1cc2cc(c1)-c1cncc3[nH]c(nc13)-c1n[nH]c3ccc(cc13)-c1cncc(c1)CNC2` [compound 618], the EC50 at CLK2 kinase stood at 2 nM; on CLK3 kinase, 12 nM; in assay [1], 200 nM; in assay [2] it was 41.8 nM. The Emax in assay [1] is 558%.
The corresponding values for `CC(C)CC(=O)Nc1cncc(-c2ccc3[nH]nc(-c4nc5c(-c6cc(F)cc(CNS(C)(=O)=O)c6)cncc5[nH]4)c3c2)c1` [compound 292] are 9 nM, 60 nM, 100 nM, 5 nM and 118%.
The matching figures for `c1cncc(-c2ccc3[nH]nc(-c4nc5c(-c6cccnc6)cccc5[nH]4)c3n2)c1` [compound 180]: 2 nM, 296 nM, 30 nM, 1120 nM and 57.8%.
The corresponding values for `CS(=O)(=O)NCc1cc(F)cc(-c2nccc3[nH]c(-c4n[nH]c5ccc(-c6cncc(NC(=O)Cc7ccccc7)c6)nc45)cc23)c1` [compound 530] are 17 nM, 151 nM, 10 nM, > 10000 nM and 110%.
As for `Cc1cncc(NC(=O)c2n[nH]c3ccc(-c4cncc(CN5CCCCC5)c4)cc23)c1` [compound 79], the EC50 came out at 1 nM on CLK2 kinase, 352 nM at CLK3 kinase, 300 nM in assay [1] and 59 nM in assay [2]. Also, the Emax in assay [1] came to 68.3%.
Turning to `CC(C)C(=O)Nc1cncc(-c2ccc3[nH]nc(-c4nc5c(-c6cccnc6)ccnc5[nH]4)c3n2)c1` [compound 187], the EC50 on CLK2 kinase was 2 nM; at CLK3 kinase, 132 nM; in assay [2] it was > 10000 nM. In addition, in assay [1], the Emax amounted to 26.1%.
`FC1(F)CCN(Cc2cncc(-c3ccc4[nH]nc(-c5nc6c(N7CCCCC7)cncc6[nH]5)c4c3)c2)C1` [compound 211]: the values for the EC50 (at CLK2 kinase; at CLK3 kinase; in assay [2]) were 8 nM, 107 nM and 20 nM, respectively. Further, in assay [1], the Emax worked out at 80.1%.
For the compound `CC(C)CC(=O)Nc1cncc(-c2cc3c(-c4cc5c(-c6cccs6)nccc5[nH]4)n[nH]c3cn2)c1` [compound 506], the EC50 on CLK2 kinase is 8 nM; at CLK3 kinase, 392 nM; in assay [1] it was 10 nM; in assay [2], 572 nM. Besides, the Emax in assay [1] came to 81.4%.
For the compound `CN1CCN(c2cncc3[nH]c(-c4n[nH]c5ccc(-c6cncc(N7CCOCC7)c6)cc45)nc23)CC1` [compound 218], the values for the EC50 (on CLK2 kinase; at CLK3 kinase; in assay [2]) were 1 nM, 32 nM and 83 nM, respectively. For the same compound, the Emax in assay [1] turned out to be 63.8%.
As for `Nc1cncc(-c2ccc3[nH]nc(-c4cc5c(N6CCCCC6)ccnc5[nH]4)c3c2)c1` [compound 455], the EC50 was 5 nM at CLK2 kinase, 110 nM at CLK3 kinase and 604 nM in assay [2]. Further, the Emax in assay [1] came to 130%.
The matching figures for `Nc1cncc(-c2cc3c(-c4cc5c(-c6ccccc6F)cncc5[nH]4)n[nH]c3cn2)c1` [compound 324]: 6 nM, 205 nM, 1630 nM and 15.5%.
As to `CN(C)Cc1cncc(-c2cnc3[nH]nc(-c4nc5c(-c6cccc(F)c6)cncc5[nH]4)c3c2)c1` [compound 137], the EC50 on CLK2 kinase worked out at 1 nM; on CLK3 kinase, 7 nM; in assay [1] it was 30 nM; in assay [2], 13 nM. For the same compound, the Emax in assay [1] stood at 183%.
Consider `CN(C)Cc1cncc(-c2cc3c(-c4cc5c(N6CCN(C)CC6)nccc5[nH]4)n[nH]c3cn2)c1` [compound 491], for which the values for the EC50 (on CLK2 kinase; on CLK3 kinase; in assay [2]) were 20 nM, 1940 nM and 3890 nM, respectively. Further, the Emax in assay [1] was found to be 13.9%.
In the case of `CC1CCN(Cc2cncc(-c3ccc4[nH]nc(C(=O)Nc5cccnc5)c4c3)c2)CC1` [compound 98], the EC50 was determined as 1 nM at CLK2 kinase, 86 nM at CLK3 kinase, 30 nM in assay [1] and 7 nM in assay [2]. Also, the Emax in assay [1] was 94.4%.
Consider `CC(C)C(=O)Nc1cncc(-c2ccc3[nH]nc(-c4cc5c(-c6cccnc6)cncc5[nH]4)c3c2)c1` [compound 349], for which the EC50 on CLK2 kinase stood at 2 nM; at CLK3 kinase it was 37 nM; in assay [2], 260 nM. The Emax in assay [1] was determined as 34.5%.
For the compound `Nc1cncc(-c2cc3c(-c4cc5c(-c6ccccc6F)nccc5[nH]4)n[nH]c3cn2)c1` [compound 323], the EC50 at CLK2 kinase turned out to be 2 nM; on CLK3 kinase it was 59 nM; in assay [1] it was 10 nM; in assay [2], 224 nM. Also, in assay [1], the Emax worked out at 117%.
The matching figures for `Cn1cc(-c2cnc3[nH]nc(-c4nc5c(-c6cccc(F)c6)nccc5[nH]4)c3c2)cn1` [compound 155]: 14 nM, 138 nM, 30 nM, 11.1 nM and 74.9%.
As to `c1cncc(-c2ccnc3[nH]c(-c4n[nH]c5cnc(-c6cncnc6)cc45)cc23)c1` [compound 374], the EC50 at CLK2 kinase is 19 nM; on CLK3 kinase, 9840 nM; in assay [2], > 10000 nM. Moreover, in assay [1], the Emax amounted to 49.6%.
Turning to `CCC(=O)Nc1cncc(-c2ccc3[nH]nc(-c4nc5c(-c6cccc(F)c6)cncc5[nH]4)c3c2)c1` [compound 120], the EC50 at CLK2 kinase came to 23 nM; at CLK3 kinase it was 61 nM; in assay [1] it was 30 nM; in assay [2] it was 4.6 nM. Moreover, in assay [1], the Emax is 139%.
`O=C(Nc1cncc(-c2ccc3[nH]nc(-c4cc5cccnc5[nH]4)c3c2)c1)C1CCCC1` [compound 429]: the EC50 stood at 9 nM on CLK2 kinase, 365 nM at CLK3 kinase and 271 nM in assay [2]. Besides, the Emax in assay [1] was 30.2%.
Turning to `CC(C)(C)CC(=O)Nc1cncc(-c2cc3c(-c4cc5cnccc5[nH]4)n[nH]c3cn2)c1` [compound 425], the EC50 on CLK2 kinase was 3 nM; on CLK3 kinase it was 56 nM; in assay [1], 10 nM; in assay [2], 1890 nM. In addition, the Emax in assay [1] is 58.8%.
The corresponding values for `CC(C)CC(=O)Nc1cncc(-c2cnc3[nH]nc(-c4cc5c(-c6ccncc6)cccc5[nH]4)c3c2)c1` [compound 389] are 9 nM, 9910 nM, 30 nM, 711 nM and 71.4%.
`O=C(Nc1cncc(-c2ccc3[nH]nc(-c4nc5ccncc5[nH]4)c3c2)c1)C1CC1` [compound 204]: the EC50 was found to be 27 nM at CLK2 kinase, 206 nM at CLK3 kinase and 8 nM in assay [2]. In assay [1], the Emax turned out to be 93.8%.
As to `FC1(F)CCN(Cc2cncc(-c3ccc4[nH]nc(-c5cc6cnccc6[nH]5)c4n3)c2)C1` [compound 446], the EC50 at CLK2 kinase stood at 1 nM; at CLK3 kinase, 23 nM; in assay [1] it was 300 nM; in assay [2], 45 nM. For the same compound, the Emax in assay [1] stood at 134%.
On to `CN(C)Cc1cncc(-c2ccc3[nH]nc(-c4nc5c(-c6cccc(F)c6)cncc5[nH]4)c3n2)c1` [compound 139], for which the EC50 came to 3 nM at CLK2 kinase, 79 nM on CLK3 kinase and 1050 nM in assay [2]. Besides, in assay [1], the Emax was determined as 16.7%.
With `Oc1cncc(-c2ccc3[nH]nc(-c4nc5c(-c6cccc(F)c6)cncc5[nH]4)c3n2)c1` [compound 145], the EC50 at CLK2 kinase was 5 nM; on CLK3 kinase, 74 nM; in assay [1], 20.6 nM; in assay [2], > 10000 nM. Besides, the Emax in assay [1] worked out at 53.6%.
Turning to `c1cncc(-c2ccc3[nH]nc(-c4cc5cnccc5[nH]4)c3c2)c1` [compound 410], the EC50 worked out at 1 nM on CLK2 kinase, 15 nM at CLK3 kinase and 40 nM in assay [2]. In assay [1], the Emax was 342%.
With `CC(=O)Nc1cncc(-c2ccc3[nH]nc(-c4cc5c(N6CCCCC6)nccc5[nH]4)c3c2)c1` [compound 457], the EC50 at CLK2 kinase came out at 1 nM; on CLK3 kinase, 52 nM; in assay [1], 10 nM; in assay [2] it was 445 nM. For the same compound, in assay [1], the Emax turned out to be 244%.
In the case of `COc1cncc(C(=O)Nc2c[nH]nc2C(=O)Nc2ccc(N3CCNCC3)nc2)c1` [compound 7], the EC50 came to 14 nM on CLK2 kinase, 2360 nM on CLK3 kinase and 681 nM in assay [2]. Moreover, in assay [1], the Emax turned out to be 90.7%.
